# Test results as given in patent US12681006B2, “Methods of generating human endometrial stromal fibroblasts and three-dimensional multi-layered human endometrial tissue compositions” (Northwestern University, priority 2021, dated 2026).
# Values joined by “and” are separate entries in the source; they are usually repeats but may differ in a detail not shown here. Equal values may be shown once.
# B1: WNT7A: recombinant Human WNT7A (R&D Systems), used as second Wnt/β-catenin agonist (protein, UniProt O00755 32-349, looked up)
# Protein Wnt-7a: LGASIICNKIPGLAPRQRAICQSRPDAIIVIGEGSQMGLDECQFQFRNGRWNCSALGERTVFGKELKVGSREAAFTYAIIAAGVAHAITAACTQGNLSDCGCDKEKQGQYHRDEGWKWGGCSADIRYGIGFAKVFVDAREIKQNARTLMNLHNNEAGRKILEENMKLECKCHGVSGSCTTKTCWTTLPQFRELGYVLKDKYNEAVHVEPVRASRNKRPTFLKIKKPLSYRKPMDTDLVYIEKSPNYCEEDPVTGSVGTQGRACNKTAPQASGCDLMCCGRGYNTHQYARVWQCNCKFHWCCYVKCNTCSERTEMYTCK
# Key:
# Format in all cases: cell-based, human
# [1] = test system: pluripotent stem cells (PSC); assay: Differentiation of PSC to intermediate mesoderm with CHIR99021, marker expression by qPCR/ICC
# Source text: Generation of ESF from pluripotent stem cells (PSC) involves sequential differentiation of the cells through a series of intermediate progenitor cells species (FIG. 6). The first step (FIG. 1a) requires the specification of intermediate mesoderm (IM), a common mesodermal progenitor for both nephric and reproductive tracts (Yucer et al., 2017). […] We observed high levels of mesodermal-specific Brachyury (TBXT) gene expression, and concurrent reduction of pluripotency markers OCT3/4 and SOX2 in 2 days (FIG. 1b, d). LHX1 and PAX2, two transcription factors expressed in the intermediate mesoderm (IM), also were detected at this time (FIG. 1c, d). […] At day 4 of differentiation, TBXT expression was decreased, LHX1 and PAX2 expression was either maintained or increased, and expression of anti-Müllerian hormone receptor 2 (AMHR2), a specific marker of Müllerian duct mesenchyme, increased (FIG. 1b, c, e).
# (§1) Monolayer Cell Culture and Differentiation: Both embryonic (H7) and iPS (reprogrammed from Coriell fibroblast GM03651 by Sendai virus (ThermoFisher #A16517) following manufacturer's instruction) cells lines of female origin (XX) were used for differentiation as well as co-culture. Cells were cultured in mTeSR1 media (STEMCELL Technologies #85875) and on Corning Matrigel hESC-Qualified Matrix (Corning™ #354277) coated tissue culture plastic plates. Lot specific dilution factor volume provided by the manufacturer is diluted into 24 mL of cold DMEM/F12 (ThermoFisher Scientific #11320-082). To coat: 1 mL of this solution is applied to 1 well of a 6 well plate (9.6 cm^2) and incubated at RT for 1 hr or 37 C for 30 min. To differentiate, PSC were dissociated to single-cell level using Accutase (EMD Millipore #SCR005). Once at single cell level, equal volume mTeSR1 was added to stop dissociation and cells were pelleted at 0.2e3 rcf for 5 min. Supernatant was discarded and the remaining pellet of PSC was resuspended in mTeSR1 and 10 μM Y27632 (Reprocell #04-0012-02) and plated onto Corning Matrigel hESC-Qualified Matrix coated tissue culture plates at 3×10^5 per 3.8 cm^2 or equivalent density. Media is replaced with Differentiation Basal Media (Advanced RPMI 1640 (Gibco #12633020), 1× Gluatmax (Gibco #35050061) and […] CHIR99021 (STEMCELL Technologies #72054). After 4 days, the media is changed to Differentiation Basal Media containing 100 ng/mL recombinant Human WNT7A (R&D Systems #3008-WN-025). The final differentiation treatment media was Differentiation Basal Media with 10 ng/mL Recombinant Human BMP2 (R&D Systems #355-BM010), and 10 nM β-estradiol (E2, Millipore Sigma #E2758-250MG). While it varies by cell line, the expected yield at day 12 off differentiation when starting with 3×10^5 stem cells is 0.6×10^6-13.2×10^6 PSC-ESF.
# (§2) qRT-PCR: RNA Isolation was performed using the RNAqueous-Micro Total RNA Isolation Kit (ThermoFisher Scientific #AM1931) following manufacturer's instructions. DNAse treatment and reverse transcription were performed using SuperScript IV VILO Master Mix with ezDNase Enzyme (ThermoFisher Scientific #11766050) following manufacturer's instructions. Quantitative PCR was performed using SYBR Green PCR Master Mix (ThermoFisher Scientific #4312704) using the QuantStudio 7. ESC and iPSC differentiated cells were used for analysis. A list of primers can be found in Table 1.
# Immunocytochemistry: Monolayer cultures: cells cultured on Matrigel coated coverslips were washed with 1×DPBS (Corning #21031CV) before fixing the cells using 4% Formaldehyde solution (Millipore Sigma #P6148) for 20 min at room temperature. After 20 min, cells are washed 3 times with 1×DPBS. Prior to staining, cells were blocked for 1 hr at RT in PBS (Fisher Scientific #AM9625), 0.1% BSA (Millipore Sigma #A7906), 0.25% Triton-X (Millipore Sigma #T8787), and 10% Normal Goat Serum (Jackson Immuno Research #005-000-121). Primary Antibodies were diluted into the same buffer for incubation at 4° C. overnight. […]
# Hedgehog signaling = assay: Inhibition of Hedgehog signaling in PSC-ESF/EEO co-cultures with cyclopamine, qPCR
# Experimental: FIG. 12a-FIG. 12d. […] Related to FIG. 5 a. Schematic of treatment paradigm for inhibition of Hedgehog signaling. Co-cultures were cultured in vehicle treatment media with either 10 uM cyclopamine (+) or vehicle (EtOH, −). After 48 h co-cultures were harvested for RNA and qPCR analysis. b. Gene expression of direct downstream mediators of IHH signaling: GLI1 and GLI2. […] (d12 v.−ns p-value=0.0953; −v.+ns p-value−v.+p-value=0.2661). c. […] (Lachman, A., 2010; ENCODE Project Consortium, 2011) d. Top 10 pathways enriched in decidualized co-cultured PSC-ESF over decidualized monolayer ESF as analyzed by the integrated Bioplanet 2019 platform. Both enrichment analyses done using Enrichr with a 2-fold cutoff ((http://amp.pharm.mssm.edu/Enrichr/).
# BMP2, a member of the TGF B family, is necessary for decidualization (FIG. 5d). BMP2 in ESF can be activated by hormone treatments, such as P4 and cAMP, which directly increase BMP2 expression to mediate decidualization in hESF (Lee et al., 2007). In the mouse, stromal BMP2 is further amplified indirectly by P4 activated IHH from the luminal epithelium (Lee et al., 2007). Increased stromal BMP2 subsequently mediates decidualization by activating WNT (WNT4) signaling, FK506-binding proteins (FKBP5), and prostaglandin (PTGS1) (Li et al., 2013). To examine the hormone mediated activation of IHH signaling in co-cultured PSC-ESF, we analyzed expression of IHH and BMP signaling targets after decidualization. […] HOXA10, a mediator of stromal hormone response, was not increased by co-culture. However, it trended towards an increase after hormone treatment, though without statistical significance (FIG. 5e). Importantly, we observed that BMP2 and BMP2 signaling targets (WNT4, FKBP5, and PTGS1) also were increased in expression in response to co-culture, while BMP2, FKBP5, and PTGS1 were further increased by hormone treatment (FIG. 5e).
# as §2
# [2] = test system: PSC derived cells, day 4 of differentiation; assay: WNT7A treatment day 4-8 to expand Müllerian duct mesenchyme (PSC-ESP), marker expression by qPCR/ICC
# Experimental: To preferentially expand the Müllerian duct mesenchyme population, at day 4 we continued activating the WNT/B-catenin pathway with WNT7A (100 ng/ml) treatment from day 4-8. […] The Müllerian duct is patterned along the anterior-posterior axis to develop into the fallopian tubes (HOXA9), endometrium (HOXA10 and HOXA11), cervix (HOXA11), and vagina (HOXA13) (Du and Taylor, 2015). […] Immunocytochemical (ICC) analyses validated the qPCR results with increasing nuclear expression of the HOXA11 transcription factor from day 0 to day 8 (FIG. 1g). The expression of mesenchymal lineage markers platelet derived growth factor beta (PDGFRβ) and vimentin (VIM) supported specification to the stromal cell type (FIG. 1h). HOXA11 was confirmed to be co-expressed with mesenchymal markers AMHR2 and VIM (FIG. 1h, i). […] Further, 93.31+1.46% of the cells were Ki67^+, confirming that the cells at day 8 are in cell cycle (FIG. 1i, j). PSC-ESP at day 8 of differentiation could be frozen and thawed for subsequent differentiation, generating cells with appropriate proliferative properties and lineage-specific marker expression (FIG. 7f, g). In toto, these findings indicate that developmentally and regionally appropriate endometrial stromal progenitors, which we termed PSC-ESP, were generated at this point of the differentiation protocol.
# as §1
# as §2, with “1. […]” for “1.”
# [3] = 10 uM cyclopamine, 48 h, vs vehicle (EtOH)
# [4] = day 8, after CHIR99021 day 0-4 and WNT7A day 4-8, ICC
molecule,measurement,setting,value
Cc1c[nH]c(-c2cnc(NCCNc3ccc(C#N)cn3)nc2-c2ccc(Cl)cc2Cl)n1 [CHIR99021],LHX1 and PAX2 (intermediate mesoderm transcription factors) expression,"[1]; 8 μM CHIR99021, day 2",detected
same,mesodermal-specific Brachyury (TBXT) gene expression,"[1]; 8 μM CHIR99021, day 2 vs day 0, qPCR",high levels
same,"expression of AMHR2, marker of Müllerian duct mesenchyme","[1]; 8 μM CHIR99021, day 4 of differentiation",increased
same,pluripotency markers OCT3/4 and SOX2,"[1]; 8 μM CHIR99021, in 2 days, qPCR/ICC",reduction
same,expression of endoderm and mesendoderm marker SOX17,"[1]; 8 μM CHIR99021, qPCR",low but significant increase
same,cell expansion of treated PSC,[1]; CHIR99021 treatment of PSC,rapid expansion of cells
same,"LHX1 and PAX2 induction, comparison of concentrations of CHIR99021","[1]; day 4, ESC, both concentrations of CHIR99021","highly, but differently induced"
CC1=C2C[C@H]3[C@@H](CC=C4C[C@@H](O)CC[C@@]43C)[C@@H]2CC[C@]12O[C@@H]1C[C@H](C)CN[C@H]1[C@H]2C [cyclopamine],GLI1 gene expression,Hedgehog signaling; [3],significantly downregulated
same,GLI2 gene expression,Hedgehog signaling; [3],similarly regulated without statistical significance
same,BMP2 expression,"Hedgehog signaling; cyclopamine 48 hr, co-culture",trended towards a reduction
same,HOXA10 expression,"Hedgehog signaling; cyclopamine 48 hr, co-culture",significant reduction
same,NR2F2 expression,"Hedgehog signaling; cyclopamine 48 hr, co-culture",significant reduction
B1,expression of endometrium specific genes HOXA10 and HOXA11,"[2]; 100 ng/mL WNT7A day 4 to day 8, only in the 8 uM CHIR99021 condition",only induced high expression
same,Müllerian mesenchyme specific AMHR2 expression,"[2]; 100 ng/ml WNT7A, day 4-8, qPCR",further induced
same,epithelium specific marker WNT7A expression,"[2]; 100 ng/ml WNT7A, day 4-8, qPCR",did not induce
same,HOXA10 and HOXA11 expression,"[2]; 100 ng/ml WNT7A, day 8 of differentiation, qPCR",significantly upregulated
same,HOXA9 (fallopian tube) and HOXA13 (vagina) expression,"[2]; WNT7A day 4 through 8, d4 vs d8, qPCR",not significantly upregulated
same,DAPI+ cells expressing both AMHR2 and HOXA11,[2]; [4],78.55+8.17% and 78.5%
same,DAPI+ cells positive for HOXA11,[2]; [4],92.27+5.15% and 92.3%
same,cells Ki67+,[2]; [4],93.31+1.46% and 93.3%
